# Assay results as given in patent publication US20230293539A1, “MLL1-WDR5 PROTEIN-PROTEIN INTERACTION INHIBITOR COMPOUNDS AND USES THEREOF” (HUYABIO International, LLC, priority 2022, published 2023).
# Where two headings read alike, the source gives them in different places.
# Assay: PK profile of HBI-2375 in plasma and brain in C57BL/6J mice
# Assay type: in vivo
# Conditions: for AUClast / AUC(0-t) / Tmax at 7 day / Cmax at 7 day / Tmax / Cmax / MRT last: C57BL/6J mice; for concentration at 24 h / Kp / AUC(0-t): C57BL/6J; for concentration at 24 h / Kp / AUC(0-t) / Tmax at 7 day / Cmax at 7 day / Tmax / Cmax / MRT last: mouse; for concentration at 24 h: read-out: Mean Brain Concentration, Cmin = 24 h; for AUClast Ratio, group 2 vs 1 / Cmax Ratio, group 2 vs 1: 80 vs 40 mg/kg PO; for AUClast ratios females/males / Cmax ratios females/males: all three dose groups; for AUClast Ratio, group 3 vs 2 / Cmax Ratio, group 3 vs 2: repeat PO vs PO 80 mg/kg
# Procedure: EXAMPLE 4: PK profile of compound of Formula (IIIb) (HBI-2375, HYBI-84) in plasma and brain in C57BL/6J mice: This study was conducted in accordance with the Study Protocol and Pharmaron (Ningbo) TSP's Standard Operating Procedures (SOPs) following all regulatory protocols. This study was conducted under non-GLP environment.
# Following single oral gavage administration of HBI-2375 at 40 mg/kg, 80 mg/kg, and 7-day repeat oral gavage administration at 80 mg/kg in C57BL/6J mice, concentrations of HBI-2375 in plasma and brain were determined by LC-MS/MS methods. […] The maximal concentrations of HBI-2375 in brain were all observed at 4 hr post-dose. […] The exposure of HBI-2375 in plasma and brain of females were closed to that of males, the ratios were 0.989-1.22 for plasma, and 1.10-1.34 for brain.
# [1] = 7-day repeat PO 80 mg/kg, brain, female
# [2] = 7-day repeat PO 80 mg/kg, brain, male
# [3] = single PO 40 mg/kg, brain, female
# [4] = single PO 40 mg/kg, brain, male
# [5] = single PO 80 mg/kg, brain, female
# [6] = single PO 80 mg/kg, brain, male
# [7] = both sexes, single PO 40 mg/kg, brain, mean
# [8] = both sexes, single PO 40 mg/kg, plasma, mean
# [9] = both sexes, single PO 80 mg/kg, brain, mean
# [10] = both sexes, single PO 80 mg/kg, plasma, mean
# [11] = mice, 7-day consecutive dosing 80 mg/kg
# [12] = mice, all dose groups, listed as HBI-2375
# [13] = mice, repeat PO 80 mg/kg, brain
# [14] = mice, repeat PO 80 mg/kg, plasma
# [15] = mice, single PO 40 mg/kg, brain
# [16] = mice, single PO 40 mg/kg, plasma
# [17] = mice, single PO 80 mg/kg, brain
# [18] = mice, single PO 80 mg/kg, plasma
# [19] = 7-day repeat PO 80 mg/kg, plasma, female
# [20] = 7-day repeat PO 80 mg/kg, plasma, male
# [21] = single PO 40 mg/kg, plasma, female
# [22] = single PO 40 mg/kg, plasma, male
# [23] = single PO 80 mg/kg, plasma, female
# [24] = single PO 80 mg/kg, plasma, male
structure (smiles),measurement,setting,value
"Cc1c(F)c(N)cc(C(=O)Nc2cc(-n3cc(C(=O)N4CCN(C)CC4)nn3)c(F)cc2N2C[C@@H](C)N(C)[C@@H](C)C2)c1Cl [HYBI-084, 5-amino-2-chloro-4-fluoro-N-(4-fluoro-5-(4-(4-methylpiperazine-1-carbonyl)-1H-1,2,3-triazol-1-yl)-2-((3S,5R)-3,4,5-trimethylpiperazin-1-yl)phenyl)-3-methylbenzamide]",AUClast,[1],11446 ng·h/g
same,AUClast,[2],8555 ng·h/g
same,AUClast,"7-day repeat PO 80 mg/kg, brain, mean",10001 ng·h/g
same,AUClast,[3],2179 ng·h/g
same,AUClast,[4],1879 ng·h/g
same,AUClast,"single PO 40 mg/kg, brain, mean",2029 ng·h/g
same,AUClast,[5],6129 ng·h/g
same,AUClast,[6],5559 ng·h/g
same,AUClast,"single PO 80 mg/kg, brain, mean",5844 ng·h/g
same,concentration at 24 h,"brain, po, 80 mg/kg, Repeat PO Mouse at 80 mg/kg",136 ng/g
same,concentration at 24 h,"brain, po, 80 mg/kg, Single PO Mouse at 80 mg/kg",55 ng/g
same,Kp,"both sexes, brain, oral, 40 mg/kg, mice, single dosing 40 mg/kg, read-out: AUC exposure in brain as % of that in plasma",0.283 to 0.332
same,Kp,"both sexes, brain, oral, 80 mg/kg, mice, single dosing 80 mg/kg, read-out: AUC exposure in brain as % of that in plasma",0.361 to 0.388
same,Kp,"both sexes, brain, oral, mice, all dose groups, read-out: brain exposure as % of AUC in plasma",0.283 to 0.588
same,AUC(0-t),"both sexes, plasma, po, 40 mg/kg, single PO 40 mg/kg, mean",6600 ng·h/mL
same,AUC(0-t),"both sexes, plasma, po, 80 mg/kg, 7-day repeat PO 80 mg/kg, mean",17700 ng·h/mL
same,AUC(0-t),"both sexes, plasma, po, 80 mg/kg, single PO 80 mg/kg, mean",15600 ng·h/mL
same,Tmax at 7 day,"both sexes, 7-day repeat PO 80 mg/kg, brain",4 h
same,Cmax at 7 day,"both sexes, 7-day repeat PO 80 mg/kg, brain, mean",807 ng/g
same,Tmax at 7 day,"both sexes, 7-day repeat PO 80 mg/kg, plasma",1 h
same,Cmax at 7 day,"both sexes, 7-day repeat PO 80 mg/kg, plasma, mean",2530 ng/mL
same,Tmax,"both sexes, single PO 40 mg/kg, brain",4 h
same,Cmax,[7],180 ng/g
same,MRT last,[7],8.15 h
same,Tmax,"both sexes, single PO 40 mg/kg, plasma",0.5 h
same,Cmax,[8],1140 ng/mL
same,MRT last,[8],5.26 h
same,Tmax,"both sexes, single PO 80 mg/kg, brain",4 h
same,Cmax,[9],528 ng/g
same,MRT last,[9],8.21 h
same,Tmax,"both sexes, single PO 80 mg/kg, plasma",0.5 h
same,Cmax,[10],3970 ng/mL
same,MRT last,[10],5.16 h
same,Kp,"female, brain, po, 40 mg/kg, mice, single PO 40 mg/kg, female, read-out: AUClast Ratio Brain/Plasma",0.332
same,Kp,"female, brain, po, 80 mg/kg, mice, repeat PO 80 mg/kg, female, read-out: AUClast Ratio Brain/Plasma",0.588
same,Kp,"female, brain, po, 80 mg/kg, mice, single PO 80 mg/kg, female, read-out: AUClast Ratio Brain/Plasma",0.388
same,AUC(0-t),"female, plasma, po, 40 mg/kg, single PO 40 mg/kg",6560 ng·h/mL
same,AUC(0-t),"female, plasma, po, 80 mg/kg, 7-day repeat PO 80 mg/kg",19500 ng·h/mL
same,AUC(0-t),"female, plasma, po, 80 mg/kg, single PO 80 mg/kg",15800 ng·h/mL
same,Kp,"male, brain, po, 40 mg/kg, mice, single PO 40 mg/kg, male, read-out: AUClast Ratio Brain/Plasma",0.283
same,Kp,"male, brain, po, 80 mg/kg, mice, repeat PO 80 mg/kg, male, read-out: AUClast Ratio Brain/Plasma",0.536
same,Kp,"male, brain, po, 80 mg/kg, mice, single PO 80 mg/kg, male, read-out: AUClast Ratio Brain/Plasma",0.361
same,AUC(0-t),"male, plasma, po, 40 mg/kg, single PO 40 mg/kg",6640 ng·h/mL
same,AUC(0-t),"male, plasma, po, 80 mg/kg, 7-day repeat PO 80 mg/kg",16000 ng·h/mL
same,AUC(0-t),"male, plasma, po, 80 mg/kg, single PO 80 mg/kg",15400 ng·h/mL
same,drug accumulation in brain,[11],no obvious drug accumulation
same,drug accumulation in plasma,[11],no obvious drug accumulation
same,mean concentration at 24 hr post-dose as % of Cmax,"mice, 7-day repeat PO 80 mg/kg, brain, both sexes",14.4-18.9%
same,mean concentration at 24 hr post-dose as % of Cmax,"mice, 7-day repeat PO 80 mg/kg, plasma, both sexes",2.68-3.94%
same,"AUClast Ratio, group 2 vs 1","mice, brain, female",2.81
same,"Cmax Ratio, group 2 vs 1","mice, brain, female",2.89
same,"AUClast Ratio, group 2 vs 1","mice, brain, male",2.96
same,"Cmax Ratio, group 2 vs 1","mice, brain, male",3.00
same,"AUClast Ratio, group 2 vs 1","mice, plasma, female",2.41
same,"Cmax Ratio, group 2 vs 1","mice, plasma, female",3.47
same,"AUClast Ratio, group 2 vs 1","mice, plasma, male",2.32
same,"Cmax Ratio, group 2 vs 1","mice, plasma, male",3.50
same,distribution,"mice, all dose groups",distributed to brain
same,duration of brain exposure,"mice, all dose groups",24 h
same,gender-related differences in exposure in brain,[12],No gender-related differences
same,gender-related differences in exposure in plasma,[12],No gender-related differences
same,AUClast ratios females/males,"mice, brain",1.10-1.34
same,Cmax ratios females/males,"mice, brain",1.11-1.24
same,AUClast ratios 7-day repeat vs single-dose 80 mg/kg,"mice, brain, both sexes",1.54-1.87
same,AUClast ratios 80 vs 40 mg/kg single dose,"mice, brain, both sexes",2.81-2.96
same,Cmax ratios 7-day repeat vs single-dose 80 mg/kg,"mice, brain, both sexes",1.44-1.60
same,AUClast ratios females/males,"mice, plasma",0.989-1.22
same,Cmax ratios females/males,"mice, plasma",0.967-1.27
same,AUClast ratios 7-day repeat vs single-dose 80 mg/kg,"mice, plasma, both sexes",1.04-1.23
same,AUClast ratios 80 vs 40 mg/kg single dose,"mice, plasma, both sexes",2.32-2.41
same,AUClast Ratio Female/Male,[13],1.34
same,Cmax Ratio Female/Male,[13],1.24
same,C24hr/Cmax Ratio (%),"mice, repeat PO 80 mg/kg, brain, female",18.9%
same,C24hr/Cmax Ratio (%),"mice, repeat PO 80 mg/kg, brain, male",14.4%
same,AUClast Ratio Female/Male,[14],1.22
same,Cmax Ratio Female/Male,[14],1.27
same,C24hr/Cmax Ratio (%),"mice, repeat PO 80 mg/kg, plasma, female",3.94%
same,C24hr/Cmax Ratio (%),"mice, repeat PO 80 mg/kg, plasma, male",2.68%
same,"AUClast Ratio, group 3 vs 2","mice, brain, female",1.87
same,"Cmax Ratio, group 3 vs 2","mice, brain, female",1.60
same,"AUClast Ratio, group 3 vs 2","mice, brain, male",1.54
same,"Cmax Ratio, group 3 vs 2","mice, brain, male",1.44
same,"AUClast Ratio, group 3 vs 2","mice, plasma, female",1.23
same,"Cmax Ratio, group 3 vs 2","mice, plasma, female",0.726
same,"AUClast Ratio, group 3 vs 2","mice, plasma, male",1.04
same,"Cmax Ratio, group 3 vs 2","mice, plasma, male",0.552
same,AUClast Ratio Female/Male,[15],1.16
same,Cmax Ratio Female/Male,[15],1.15
same,mean concentration at 24 hr post-dose as % of Cmax,"mice, single PO 40 mg/kg, brain, both sexes",10.4-11.1%
same,C24hr/Cmax Ratio (%),"mice, single PO 40 mg/kg, brain, female",11.1%
same,C24hr/Cmax Ratio (%),"mice, single PO 40 mg/kg, brain, male",10.4%
same,AUClast Ratio Female/Male,[16],0.989
same,Cmax Ratio Female/Male,[16],0.976
same,mean concentration at 24 hr post-dose as % of Cmax,"mice, single PO 40 mg/kg, plasma, both sexes",0.748-1.10%
same,C24hr/Cmax Ratio (%),"mice, single PO 40 mg/kg, plasma, female",1.10%
same,C24hr/Cmax Ratio (%),"mice, single PO 40 mg/kg, plasma, male",0.748%
same,AUClast Ratio Female/Male,[17],1.10
same,Cmax Ratio Female/Male,[17],1.11
same,mean concentration at 24 hr post-dose as % of Cmax,"mice, single PO 80 mg/kg, brain, both sexes",9.71-11.2%
same,C24hr/Cmax Ratio (%),"mice, single PO 80 mg/kg, brain, female",9.71%
same,C24hr/Cmax Ratio (%),"mice, single PO 80 mg/kg, brain, male",11.2%
same,AUClast Ratio Female/Male,[18],1.03
same,Cmax Ratio Female/Male,[18],0.967
same,mean concentration at 24 hr post-dose as % of Cmax,"mice, single PO 80 mg/kg, plasma, both sexes",0.671-0.757%
same,C24hr/Cmax Ratio (%),"mice, single PO 80 mg/kg, plasma, female",0.671%
same,C24hr/Cmax Ratio (%),"mice, single PO 80 mg/kg, plasma, male",0.757%
same,in-life observations,"mice, single PO 40, 80 mg/kg and 7-day repeat PO 80 mg/kg",no abnormalities were observed
same,dose proportionality of AUClast and Cmax in plasma and brain,"mice, single PO 40 and 80 mg/kg",proportional increase of exposure
same,Cmax at 7 day,[1],892 ng/g
same,Tmax at 7 day,[1],4 h
same,Cmax at 7 day,[2],722 ng/g
same,Tmax at 7 day,[2],4 h
same,Cmax at 7 day,[19],2840 ng/mL
same,Tmax at 7 day,[19],1 h
same,Cmax at 7 day,[20],2230 ng/mL
same,Tmax at 7 day,[20],1 h
same,Cmax,[3],192 ng/g
same,MRT last,[3],8.25 h
same,Tmax,[3],4 h
same,Cmax,[4],167 ng/g
same,MRT last,[4],8.05 h
same,Tmax,[4],4 h
same,Cmax,[21],1120 ng/mL
same,MRT last,[21],5.3 h
same,Tmax,[21],0.5 h
same,Cmax,[22],1150 ng/mL
same,MRT last,[22],5.22 h
same,Tmax,[22],0.5 h
same,Cmax,[5],556 ng/g
same,MRT last,[5],8.01 h
same,Tmax,[5],4 h
same,Cmax,[6],500 ng/g
same,MRT last,[6],8.4 h
same,Tmax,[6],4 h
same,Cmax,[23],3910 ng/mL
same,MRT last,[23],4.86 h
same,Tmax,[23],0.5 h
same,Cmax,[24],4040 ng/mL
same,MRT last,[24],5.46 h
same,Tmax,[24],0.5 h
